From patent US20070015832A1, “Methods of treating overactive bladder and urinary incontinence” (Myriad Genetics, Incorporated, priority 2005, published 2007)
Like-named read-outs stand apart in the source and are kept apart here.

Details: oral tablets, placebo group 6 patients
Experimental: Subjects will be stratified at randomization for use/non-use of AChE inhibitors. A target of 201 subjects (67 subjects per arm) in 3 treatment groups are enrolled for 12 Months with optional follow-on treatment after Month 12 (2 treatment groups).
The intraday dosing interval is approximately 12 hours. Study drug is instructed to be taken at approximately the same time each day during the participation in the 12-month study. Study medication may be taken with or without food.

**Q.** Which results are given for `C[C@@H](C(=O)O)c1ccc(-c2ccccc2)c(F)c1` [(R)-2-(2-fluoro-4-biphenyl)propionic acid]?
**A.** patients exhibiting urinary incontinence (400 mg BID group (800 mg/day), p value vs. placebo = 0.028): 0 patients; patients exhibiting urinary incontinence (800 mg BID group (1600 mg/day), p value vs. placebo = 0.063): 1 patient
